How the values were obtained:
[1] = system: SETVI (Foxtail, Green); experiment: Postemergence herbicidal evaluation; assay type: in vivo, Setaria viridis; settings: postemergence
Method in brief: (§1)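 Young plants, roughly two weeks from seeding, receive the active ingredient as a sprayed dispersion (acetone/water 50/50, 0.5% TWEEN 20) at 40 psi. Doses span about 0.0156 to 0.500 kg/ha. A visual score from 0 to 9 compares treated with control plants four to five weeks on.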

[2] = system: TRZAWR (Wheat, Winter, cv Riband); experiment: Preemergence herbicidal evaluation; assay type: in vivo, Triticum aestivum; settings: rated 4-5 weeks after treatment
Method in brief: (§2)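 Seeds were mixed with potting soil and planted on about one inch of soil, then sprayed with test compound in aqueous acetone at about 0.0156 to 0.500 kg per hectare. Plants grew under standard greenhouse care and were visually rated 0-9 against untreated controls 4-5 weeks post-treatment.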

[3] = system: ECHCG (Barnyardgrass); experiment: Preemergence herbicidal evaluation; assay type: in vivo, Echinochloa crus-galli; settings: rated 4-5 weeks after treatment
Method in brief: as §2

[4] = system: CYPIR (Rice Flatsedge); experiment: Postemergence weed control under flooded paddy conditions; assay type: in vivo, Cyperus iria; settings: postemergence weeds, rated 3 to 4 weeks after treatment
Method in brief: (§3)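 With weeds 3 to 5 cm tall and rice at the 1.5 to 2.5 leaf stage, containers were flooded and water held 1.5 to 3 cm above soil. Compounds in 50/50 v/v aqueous/acetone went into the flood water at about 0.0313 to 0.500 kg/ha a.i. Effects were visually rated 0–9 against controls after three to four weeks in the greenhouse.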

[5] = system: CYPSE (Flatsedge); experiment: as above; assay type: in vivo, Cyperus serotinus; settings: postemergence weeds, rated 3 to 4 weeks after treatment
Method in brief: as §3

[6] = system: ECHORC (Watergrass (Calif.)); experiment: Preemergence weed control under flooded paddy conditions; assay type: in vivo, Echinochloa oryzoides; settings: rated 3-4 weeks after treatment
Method in brief: (§4)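 Seeds or propagules sown in silt loam kept flooded 1.5-3 cm; compounds in 50/50 acetone/water pipetted into flood water at about 0.0313 to 0.500 kg/ha. Greenhouse; visual 0-9 rating versus untreated control 3-4 weeks after treatment.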

[7] = system: ZEAMX (Corn, Field); experiment: Postemergence herbicidal evaluation; assay type: in vivo, Zea mays; settings: postemergence
Method in brief: as §1

[8] = system: ECHORC (Watergrass (Calif.)); experiment: Postemergence weed control under flooded paddy conditions; assay type: in vivo, Echinochloa oryzoides; settings: postemergence weeds, rated 3 to 4 weeks after treatment
Method in brief: as §3

[9] = system: ORYSAT (Rice, Tebonnet); experiment: Postemergence herbicidal evaluation; assay type: in vivo, Oryza sativa, (L.) Tebonnet; settings: postemergence
Method in brief: as §1

[10] = system: CYPSE (Flatsedge); experiment: Preemergence weed control under flooded paddy conditions; assay type: in vivo, Cyperus serotinus; settings: rated 3-4 weeks after treatment
Method in brief: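 First, seeds or propagules go into the top 0.5 cm of silt loam; next, water is held 1.5 to 3 cm over the soil; then compound (50/50 acetone/water) is pipetted into it at about 0.0313 to 0.500 kg/ha; finally plants are rated visually 0-9 after three to four weeks.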

[11] = system: SETVI (Foxtail, Green); experiment: Preemergence herbicidal evaluation; assay type: in vivo, Setaria viridis; settings: rated 4-5 weeks after treatment
Method in brief: as §2

[12] = system: SAGPY (Arrowhead (Pygmaea)); experiment: Postemergence weed control under flooded paddy conditions; assay type: in vivo, Sagittaria pygmaea; settings: postemergence weeds, rated 3 to 4 weeks after treatment
Method in brief: as §3

[13] = system: CYPIR (Rice Flatsedge); experiment: Preemergence weed control under flooded paddy conditions; assay type: in vivo, Cyperus iria; settings: rated 3-4 weeks after treatment
Method in brief: as §4

[14] = system: ZEAMX (Corn, Field); experiment: Preemergence herbicidal evaluation; assay type: in vivo, Zea mays; settings: rated 4-5 weeks after treatment
Method in brief: as §2

Cn1c(C(F)(F)F)cc(=O)n(-c2cc(N=C3SCC(=O)N3[C@H](Cc3ccccc3)C(=O)O)c(Cl)cc2F)c1=O [Compound 69, α-Benzyl-2-{{2-chloro-5-[3,6-dihydro-3-methyl-2,6-dioxo-4-(trifluoromethyl)-1(2H)-pyrimidinyl]-4-fluorophenyl}imino}-4-oxo-3-thiazolidineacetic acid, D-] showed an SETVI herbicidal rating ([1]; rate 0.0158 kg/ha) of 3.0, an SETVI herbicidal rating ([1]; rate 0.0315 kg/ha) of 1.0 and an SETVI herbicidal rating ([1]; rate 0.0630 kg/ha) of 1.0. The “Preemergence herbicidal rating TRZAWR” value ([2]; rate 0.0156 kg/ha) was 0.0, the “Preemergence herbicidal rating TRZAWR” value ([2]; rate 0.0313 kg/ha) was 0.0 and the “Preemergence herbicidal rating TRZAWR” value ([2]; rate 0.0625 kg/ha) was 0.0. For the same compound, the “Preemergence herbicidal rating TRZAWR” value ([2]; rate 0.1250 kg/ha) was 1.0, the “Preemergence herbicidal rating TRZAWR” value ([2]; rate 0.2500 kg/ha) was 1.0 and the “Preemergence herbicidal rating ECHCG” value ([3]; rate 0.0156 kg/ha) was 0.0. For the same compound, the “Preemergence herbicidal rating ECHCG” value ([3]; rate 0.0313 kg/ha) was 0.0, the “Preemergence herbicidal rating ECHCG” value ([3]; rate 0.0625 kg/ha) was 0.0 and the “Preemergence herbicidal rating ECHCG” value ([3]; rate 0.1250 kg/ha) was 1.0. The “Preemergence herbicidal rating ECHCG” value ([3]; rate 0.2500 kg/ha) was 3.0, the “Herbicidal rating CYPIR” value ([4]; Rate 0.0313 kg/ha) was 3.0 and the “Herbicidal rating CYPIR” value ([4]; Rate 0.0625 kg/ha) was 3.0. For the same compound, the “Herbicidal rating CYPIR” value ([4]; Rate 0.1250 kg/ha) was 3.0, the “Herbicidal rating CYPIR” value ([4]; Rate 0.2500 kg/ha) was 3.0 and the “Herbicidal rating CYPSE” value ([5]; Rate 0.0313 kg/ha) was 3.0. The “Herbicidal rating CYPSE” value ([5]; Rate 0.0625 kg/ha) was 3.0, the “Herbicidal rating CYPSE” value ([5]; Rate 0.1250 kg/ha) was 9.0 and the “Herbicidal rating CYPSE” value ([5]; Rate 0.2500 kg/ha) was 9.0. For the same compound, the “ECHORC herbicidal effect rating” value ([6]; 0.0313 kg/ha) was 0.0, the “ECHORC herbicidal effect rating” value ([6]; 0.0625 kg/ha) was 4.0 and the “ECHORC herbicidal effect rating” value ([6]; 0.1250 kg/ha) was 5.0. For the same compound, the “ECHORC herbicidal effect rating” value ([6]; 0.2500 kg/ha) was 7.0, the ZEAMX herbicidal rating ([7]; rate 0.0158 kg/ha) was 4.5 and the ZEAMX herbicidal rating ([7]; rate 0.0315 kg/ha) was 4.5. The ZEAMX herbicidal rating ([7]; rate 0.0630 kg/ha) was 5.5, the “Herbicidal rating ECHORC” value ([8]; Rate 0.0313 kg/ha) was 0.0 and the “Herbicidal rating ECHORC” value ([8]; Rate 0.0625 kg/ha) was 4.0. The “Herbicidal rating ECHORC” value ([8]; Rate 0.1250 kg/ha) was 5.0, the “Herbicidal rating ECHORC” value ([8]; Rate 0.2500 kg/ha) was 7.0 and the ORYSAT herbicidal rating ([9]; rate 0.0158 kg/ha) was 2.5. For the same compound, the ORYSAT herbicidal rating ([9]; rate 0.0315 kg/ha) was 3.0, the ORYSAT herbicidal rating ([9]; rate 0.0630 kg/ha) was 4.5 and the “CYPSE herbicidal effect rating” value ([10]; 0.0313 kg/ha) was 3.0. The “CYPSE herbicidal effect rating” value ([10]; 0.0625 kg/ha) was 3.0, the “CYPSE herbicidal effect rating” value ([10]; 0.1250 kg/ha) was 9.0 and the “CYPSE herbicidal effect rating” value ([10]; 0.2500 kg/ha) was 9.0. The “Preemergence herbicidal rating SETVI” value ([11]; rate 0.0156 kg/ha) was 0.0, the “Preemergence herbicidal rating SETVI” value ([11]; rate 0.0313 kg/ha) was 0.0 and the “Preemergence herbicidal rating SETVI” value ([11]; rate 0.0625 kg/ha) was 0.0. For the same compound, the “Preemergence herbicidal rating SETVI” value ([11]; rate 0.1250 kg/ha) was 4.0, the “Preemergence herbicidal rating SETVI” value ([11]; rate 0.2500 kg/ha) was 7.0 and the “Herbicidal rating SAGPY” value ([12]; Rate 0.0313 kg/ha) was 0.0. The “Herbicidal rating SAGPY” value ([12]; Rate 0.0625 kg/ha) was 0.0, the “Herbicidal rating SAGPY” value ([12]; Rate 0.1250 kg/ha) was 3.0 and the “Herbicidal rating SAGPY” value ([12]; Rate 0.2500 kg/ha) was 3.0. For the same compound, the “CYPIR herbicidal effect rating” value ([13]; 0.0313 kg/ha) was 3.0, the “CYPIR herbicidal effect rating” value ([13]; 0.0625 kg/ha) was 3.0 and the “CYPIR herbicidal effect rating” value ([13]; 0.1250 kg/ha) was 3.0. The “CYPIR herbicidal effect rating” value ([13]; 0.2500 kg/ha) was 3.0, the “Preemergence herbicidal rating ZEAMX” value ([14]; rate 0.0156 kg/ha) was 0.0 and the “Preemergence herbicidal rating ZEAMX” value ([14]; rate 0.0313 kg/ha) was 0.0. For the same compound, the “Preemergence herbicidal rating ZEAMX” value ([14]; rate 0.0625 kg/ha) was 0.0, the “Preemergence herbicidal rating ZEAMX” value ([14]; rate 0.1250 kg/ha) was 3.0 and the “Preemergence herbicidal rating ZEAMX” value ([14]; rate 0.2500 kg/ha) was 3.0.

— US20020137929A1, “1 - (3-heterocyclylphenyl) isothiourea, -isourea, -guanidine and -amidine herbicidal agents” (Intellectual Property Department, BASF Aktiengesellschaft, priority 1998, published 2002)
